Experimental data taken from ChEMBL document CHEMBL3885881, “DrugMatrix”.

Species on record: Rattus norvegicus
Test: DrugMatrix - Regimen: Daily Repeat
Assay type: toxicity, organism-based, Sprague-Dawley
Parameters: regimen Daily Repeat, gender Male, age 6-8 weeks
Details: in vivo, po, route oral GAVAGE, vehicle 100 % WATER; for ABSOLUTE BASOPHIL / ABSOLUTE EOSINOPHIL / ABSOLUTE LYMPHOCYTE / ABSOLUTE MONOCYTE / ABSOLUTE SEGMENTED NEUTROPHIL / BASOPHIL / EOSINOPHIL / ERYTHROCYTE COUNT / HEMATOCRIT / HEMOGLOBIN / LEUKOCYTE COUNT / LYMPHOCYTE / MEAN CORPUSCULAR HEMOGLOBIN / MEAN CORPUSCULAR HEMOGLOBIN CONCENTRATION / MEAN CORPUSCULAR VOLUME / MONOCYTE / NEUTROPHIL / NUCLEATED RED BLOOD CELLS / PLATELET COUNT: tissue Blood; for ALANINE AMINOTRANSFERASE / ALBUMIN / ALKALINE PHOSPHATASE / ASPARTATE AMINOTRANSFERASE / BLOOD UREA NITROGEN / CARBON DIOXIDE / CHLORIDE / CHOLESTEROL / CREATINE PHOSPHOKINASE / CREATININE / GLUCOSE / LACTATE DEHYDROGENASE / LIPASE / PHOSPHORUS / POTASSIUM / SODIUM / TOTAL BILIRUBIN / TOTAL PROTEIN / URIC ACID: tissue Plasma
[1] = 2 mg/kg, 120 h, dose level Low, time 5 day
[2] = 2000 mg/kg, 72 h, dose level High, time 3 day
[3] = 2000 mg/kg, 120 h, dose level High, time 5 day

## CC(C)(C)c1ccc(C(=O)CCCN2CCC(OC(c3ccccc3)c3ccccc3)CC2)cc1 [EBASTINE]
[1]
  ABSOLUTE BASOPHIL: 0 CELLS/uL
  ABSOLUTE EOSINOPHIL: 268.33 CELLS/uL
  ABSOLUTE LYMPHOCYTE: 11875.67 CELLS/uL
  ABSOLUTE MONOCYTE: 285.33 CELLS/uL
  ABSOLUTE SEGMENTED NEUTROPHIL: 1837.33 CELLS/uL
  BASOPHIL: 0%
  EOSINOPHIL: 1.67%
  ERYTHROCYTE COUNT: 5.47 x10E6/uL
  HEMATOCRIT: 34.03%
  HEMOGLOBIN: 13.83 G/DL
  LEUKOCYTE COUNT: 14.27 x10E3/uL
  LYMPHOCYTE: 83.33%
  MEAN CORPUSCULAR HEMOGLOBIN: 25.3 pg
  MEAN CORPUSCULAR HEMOGLOBIN CONCENTRATION: 40.67 G/DL
  MEAN CORPUSCULAR VOLUME: 62.27 fL
  MONOCYTE: 2%
  NEUTROPHIL: 13%
  NUCLEATED RED BLOOD CELLS: 0 /100WBC
  PLATELET COUNT: 1267.33 x10E3/uL
  ALANINE AMINOTRANSFERASE: 45.33 u/L
  ALBUMIN: 4.3 G/DL
  ALKALINE PHOSPHATASE: 377.33 u/L
  ASPARTATE AMINOTRANSFERASE: 74 u/L
  BLOOD UREA NITROGEN: 15.67 mg/dL
  CARBON DIOXIDE: 27.33 mmol/L
  CHLORIDE: 101 MEQ/L
  CHOLESTEROL: 75 mg/dL
  CREATINE PHOSPHOKINASE: 212.67 u/L
  CREATININE: 0.24 mg/dL
  GLUCOSE: 160.33 mg/dL
  LACTATE DEHYDROGENASE: 207.67 u/L
  LIPASE: 10 u/L
  PHOSPHORUS: 12.17 mg/dL
  POTASSIUM: 6.8 MEQ/L
  SODIUM: 140.47 MEQ/L
  TOTAL BILIRUBIN: 0.2 mg/dL
  TOTAL PROTEIN: 5.9 G/DL
  URIC ACID: 1.87 mg/dL
[2]
  ABSOLUTE BASOPHIL: 0 CELLS/uL
  ABSOLUTE EOSINOPHIL: 34.67 CELLS/uL
  ABSOLUTE LYMPHOCYTE: 11326.67 CELLS/uL
  ABSOLUTE MONOCYTE: 253 CELLS/uL
  ABSOLUTE SEGMENTED NEUTROPHIL: 2019 CELLS/uL
  BASOPHIL: 0%
  EOSINOPHIL: 0.33%
  ERYTHROCYTE COUNT: 6 x10E6/uL
  HEMATOCRIT: 36.1%
  HEMOGLOBIN: 14.77 G/DL
  LEUKOCYTE COUNT: 13.63 x10E3/uL
  LYMPHOCYTE: 83%
  MEAN CORPUSCULAR HEMOGLOBIN: 24.63 pg
  MEAN CORPUSCULAR HEMOGLOBIN CONCENTRATION: 40.9 G/DL
  MEAN CORPUSCULAR VOLUME: 60.27 fL
  MONOCYTE: 1.67%
  NEUTROPHIL: 15%
  NUCLEATED RED BLOOD CELLS: 0.33 /100WBC
  PLATELET COUNT: 1204 x10E3/uL
  ALANINE AMINOTRANSFERASE: 96.33 u/L
  ALBUMIN: 3.67 G/DL
  ALKALINE PHOSPHATASE: 316 u/L
  ASPARTATE AMINOTRANSFERASE: 119.67 u/L
  BLOOD UREA NITROGEN: 13.67 mg/dL
  CARBON DIOXIDE: 23.67 mmol/L
  CHLORIDE: 103.67 MEQ/L
  CHOLESTEROL: 57.33 mg/dL
  CREATINE PHOSPHOKINASE: 1102 u/L
  CREATININE: 0.21 mg/dL
  GLUCOSE: 195 mg/dL
  LACTATE DEHYDROGENASE: 227 u/L
  LIPASE: 8.67 u/L
  PHOSPHORUS: 11.03 mg/dL
  POTASSIUM: 4.81 MEQ/L
  SODIUM: 144.03 MEQ/L
  TOTAL BILIRUBIN: 0.1 mg/dL
  TOTAL PROTEIN: 5.2 G/DL
  URIC ACID: 1.47 mg/dL
[3]
  ABSOLUTE BASOPHIL: 0 CELLS/uL
  ABSOLUTE EOSINOPHIL: 0 CELLS/uL
  ABSOLUTE LYMPHOCYTE: 11532 CELLS/uL
  ABSOLUTE MONOCYTE: 384.67 CELLS/uL
  ABSOLUTE SEGMENTED NEUTROPHIL: 2350 CELLS/uL
  BASOPHIL: 0%
  EOSINOPHIL: 0%
  ERYTHROCYTE COUNT: 6.72 x10E6/uL
  HEMATOCRIT: 41.1%
  HEMOGLOBIN: 16.37 G/DL
  LEUKOCYTE COUNT: 14.27 x10E3/uL
  LYMPHOCYTE: 79.67%
  MEAN CORPUSCULAR HEMOGLOBIN: 24.4 pg
  MEAN CORPUSCULAR HEMOGLOBIN CONCENTRATION: 39.83 G/DL
  MEAN CORPUSCULAR VOLUME: 61.3 fL
  MONOCYTE: 3%
  NEUTROPHIL: 17.33%
  NUCLEATED RED BLOOD CELLS: 0 /100WBC
  PLATELET COUNT: 1272.67 x10E3/uL
  ALANINE AMINOTRANSFERASE: 120.67 u/L
  ALBUMIN: 3.9 G/DL
  ALKALINE PHOSPHATASE: 248 u/L
  ASPARTATE AMINOTRANSFERASE: 112.33 u/L
  BLOOD UREA NITROGEN: 16.33 mg/dL
  CARBON DIOXIDE: 28 mmol/L
  CHLORIDE: 105.67 MEQ/L
  CHOLESTEROL: 47 mg/dL
  CREATINE PHOSPHOKINASE: 523 u/L
  CREATININE: 0.22 mg/dL
  GLUCOSE: 151 mg/dL
  LACTATE DEHYDROGENASE: 262.67 u/L
  LIPASE: 8 u/L
  PHOSPHORUS: 10.77 mg/dL
  POTASSIUM: 4.79 MEQ/L
  SODIUM: 145.73 MEQ/L
  TOTAL BILIRUBIN: 0.13 mg/dL
  TOTAL PROTEIN: 5.13 G/DL
  URIC ACID: 1.23 mg/dL
